From patent US4758558A, “N-(substituted)-[7-(2-cyanoacetamido)cephalosporanic]amide derivatives having antibiotic utility” (priority 1982, dated 1988)

Assays:
[1] = tested on: Escherichia coli; test: Effect on intestinal bacteria: number of Escherichia coli in feces; assay type: in vivo, ICR mice; conditions: 500 mg/kg/day
Procedure: (b) Effect on the intestinal bacterial colonies:
[…] Each portion of the two kinds of the feces was cultured at 25° C. or 37° C. in a variety of culture medium for one to five days to see the state of Escherichia coli, Pseudomonas aeruginosa, a Streptococcus species, a Lactobacillus species, Lactobacillus bifidus and a Bacteroides species in the culture medium.
(§1) Effects of the present compound on intestinal bacteria
Each of the two fecal […] by weight of an anaerobic diluent (a phosphoric acid buffer solution) and was ground in a mortar, and 0.1 ml of the thus ground material was smeared on each of the following culture media for the following bacteria, and the thus inoculated culture media were incubated under the following conditions. Thereafter, the number of the following bacteria in each of the thus cultured media was determined.

[2] = tested on: a species of Lactobacillus; test: Effect on intestinal bacteria: number of a sp. of Lactobacillus in feces; assay type: in vivo, ICR mice; conditions: 500 mg/kg/day
Procedure: (§2) (b) Effect on the intestinal bacterial colonies: […]
as §1
(§3) Each of the present compounds respectively produced in Examples 1 to 18 was orally administered continuously for 2 days at a daily dose rate of 500 mg/kg body weight to each of five female ICR mice of each group after 6 weeks of their birth.
(§4) Each of the two fecal specimens respectively collected from each mouse before and after one day of the administration was diluted with 100 times by weight of an anaerobic diluent (a phosphoric acid buffer solution) and was ground in a mortar, and 0.1 ml of the thus ground material was smeared on each of the following culture media for the following bacteria, and the thus inoculated culture media were incubated under the following conditions. Thereafter, the number of the following bacteria in each of the thus cultured media was determined.
a species of Lactobacillus
LBS agar 37° C., 5 days, […]

[3] = tested on: a species of Streptococcus; test: Effect on intestinal bacteria: number of a sp. of Streptococcus in feces; assay type: in vivo, ICR mice; conditions: 500 mg/kg/day
Procedure: as §2, §1, §3, §4
a species of Streptococcus
TATAC agar 37° C., one day, […]

[4] = tested on: Pseudomonas aeruginosa; test: Effect on intestinal bacteria: number of Pseudomonas aeruginosa in feces; assay type: in vivo, ICR mice; conditions: 500 mg/kg/day
Procedure: as §1, §3, §4
NAC agar 37° C., one day, […]

[5] = tested on: a species of Bacteroides; test: Effect on intestinal bacteria: number of a sp. of Bacteroides in feces; assay type: in vivo, ICR mice; conditions: 500 mg/kg/day
Procedure: as §2, §1, §3, §4
a species of Bacteroides
NBGT agar 37° C., 5 days, […]

[6] = tested on: Lactobacillus bifidus; test: Effect on intestinal bacteria: number of Lactobacillus bifidus in feces; assay type: in vivo, ICR mice; conditions: 500 mg/kg/day
Procedure: as §2, §1, §3, §4
BS agar 37° C., 5 days, […]

[7] = tested on: Staphylococcus aureus IAM 1011; test: Antibacterial activity in vitro (MIC) against Staphylococcus aureus; assay type: cell-based; conditions: IAM1011, Mueller-Hinton agar, 18 to 24 hours, 37° C., read-out: MIC (minimum growth inhibiting concentration) against Staphylococcus aureus
Procedure: (§5) (c) Anti-bacterial activity (in vitro):
(§6) Minimum concentration of the present compound inhibiting the growth of the following bacteria was determined according to the standard procedures of Japan Society of Chemotherapy:
Staphylococcus aureus IAM 1011
(§7) Determination of the antibacterial activity of the present compound produced in Examples 1 to 18, respectively was carried out according to the standard procedures of Japan Society of Chemotherapy for finding MIC (the minimum concentration of a specimen to inhibit the growth of a species of bacteria).
(§8) A series of diluted solutions of each of the present compound were mixed with 9 times by weight of Mueller-Hinton's culture medium as the culture medium for determining the sensitivity of a bacterial species, and flat agar culture plates were prepared by using the thus obtained mixture.
(§9) Each of the liquids respectively containing one of the bacterial species shown in Table 2 was smeared onto each of the thus prepared flat agar culture plates with a platinum loop, in length of about 2 cm, and the thus treated plates were incubated for 18 to 24 hours at 37° C. Thereafter, by observing the growth state of each bacterial species on the cultured plates, the minimum concentration of each compound completely inhibiting the growth of each bacterial species was found.

[8] = tested on: Escherichia coli IFO 12734; test: Antibacterial activity in vitro (MIC) against Escherichia coli; assay type: cell-based; conditions: IFO12734, Mueller-Hinton agar, 18 to 24 hours, 37° C., read-out: MIC (minimum growth inhibiting concentration) against Escherichia coli
Procedure: as §5, §6
Escherichia coli IFO 12734 and
as §7, §8, §9

[9] = after oral administration for 2 days, female ICR mice, before: 6.4
[10] = after oral administration for 2 days, female ICR mice, before: 9.0
[11] = after oral administration for 2 days, female ICR mice, before: 6.8
[12] = after oral administration for 2 days, female ICR mice, before: <3.0
[13] = after oral administration for 2 days, female ICR mice, before: 8.2
[14] = after oral administration for 2 days, female ICR mice, before: 8.3

Number of Escherichia coli after the administration [1, 9]	Number of a sp. of Lactobacillus after the administration ([2]; mouse, in vivo, po)	Number of a sp. of Streptococcus after the administration ([3]; mouse, in vivo, po)	Number of Pseudomonas aeruginosa after the administration ([4]; mouse, in vivo, po)	Number of a sp. of Bacterioides after the administration ([5]; mouse, in vivo, po)	Number of Lactobacillus bifidus after the administration ([6]; mouse, in vivo, po)	MIC [7] [µg/mL]	MIC [8] [µg/mL]	Number of Escherichia coli after the administration ([1]; mouse, in vivo, po)	SMILES	Number of a sp. of Lactobacillus after the administration [2, 10]	Number of a sp. of Streptococcus after the administration [3, 11]	Number of Pseudomonas aeruginosa after the administration [4, 12]	Number of a sp. of Bacterioides after the administration [5, 13]	Number of Lactobacillus bifidus after the administration [6, 14]
9.0 Log10 (number of bacteria/g feces)	4.6 Log10 (number of bacteria/g feces)	9.1 Log10 (number of bacteria/g feces)	< 3.0 Log10 (number of bacteria/g feces)	8.2 Log10 (number of bacteria/g feces)	6.0 Log10 (number of bacteria/g feces)				CC(=O)OCC1=C(C(=O)O)N2C(=O)C(NC(=O)CC#N)C2SC1 (stereo not drawn) [Compound X, sodium 7(2-cyanoacetamido)cephalosporanate, reference compound]					
6.9 Log10 (number of bacteria/g feces)	9.1 Log10 (number of bacteria/g feces)	6.7 Log10 (number of bacteria/g feces)	< 3.0 Log10 (number of bacteria/g feces)	8.8 Log10 (number of bacteria/g feces)	8.4 Log10 (number of bacteria/g feces)	≥ 12.5	≥ 100		COC(=O)c1ccc(NC(=O)C2=C(COC(C)=O)CSC3C(NC(=O)CSc4ccncc4)C(=O)N23)cc1 (stereo not drawn) [Example 1, N-(4-carbomethoxyphenyl)-[7-beta-(4-pyridylthioacetamido)cephalosporanic]amide]					
6.5 Log10 (number of bacteria/g feces)	9.0 Log10 (number of bacteria/g feces)	6.6 Log10 (number of bacteria/g feces)	< 3.0 Log10 (number of bacteria/g feces)	8.7 Log10 (number of bacteria/g feces)	8.6 Log10 (number of bacteria/g feces)	≥ 50	≥ 100		COC(=O)Cc1ccc(NC(=O)C2=C(COC(C)=O)CSC3C(NC(=O)CSc4ccncc4)C(=O)N23)cc1 (stereo not drawn) [Example 2, N-(4-carbomethoxymethylphenyl)-[7-(4-pyridylthioacetamido)caphalosporanic]amide]					
6.5 Log10 (number of bacteria/g feces)	9.1 Log10 (number of bacteria/g feces)	6.7 Log10 (number of bacteria/g feces)	< 3.0 Log10 (number of bacteria/g feces)	8.1 Log10 (number of bacteria/g feces)	8.5 Log10 (number of bacteria/g feces)	≥ 50	≥ 100		COC(=O)CNC(=O)c1ccc(NC(=O)C2=C(COC(C)=O)CSC3C(NC(=O)CSc4ccncc4)C(=O)N23)cc1 (stereo not drawn) [Example 3, N-(4-carbomethoxymethylcarbamoylphenyl)-[7-(4-pyridylthioacetamido)cephalosporanic]amide]					
6.7 Log10 (number of bacteria/g feces)	9.0 Log10 (number of bacteria/g feces)	6.7 Log10 (number of bacteria/g feces)	< 3.0 Log10 (number of bacteria/g feces)	8.7 Log10 (number of bacteria/g feces)	8.6 Log10 (number of bacteria/g feces)	≥ 100	≥ 100		CC(=O)OCC1=C(C(=O)Nc2ccc(C(N)=O)cn2)N2C(=O)C(NC(=O)CSc3ccncc3)C2SC1 (stereo not drawn) [Example 6, N-(nicotinamido)-[7-(4-pyridylthioacetamido)cephalosporanic acid]amide]					
6.5 Log10 (number of bacteria/g feces)	9.0 Log10 (number of bacteria/g feces)	6.7 Log10 (number of bacteria/g feces)	< 3.0 Log10 (number of bacteria/g feces)	8.7 Log10 (number of bacteria/g feces)	8.3 Log10 (number of bacteria/g feces)	≥ 100	≥ 100		COC(=O)c1ccc(NC(=O)C2=C(COC(C)=O)CSC3C(NC(=O)CC#N)C(=O)N23)cc1 (stereo not drawn) [Example 7, N-(4-carbomethoxyphenyl)-[7-(2-cyanoacetamido)cephalosporanic]amide]					
	4.0 Log10 (number of bacteria/g feces)	8.6 Log10 (number of bacteria/g feces)	< 3.0 Log10 (number of bacteria/g feces)	7.3 Log10 (number of bacteria/g feces)	9.1 Log10 (number of bacteria/g feces)			8.9 Log10 (number of bacteria/g feces)	Cc1nnc(SCC2=C(C(=O)O)N3C(=O)[C@@H](NC(=O)Cn4cnnn4)[C@H]3SC2)s1 [SODIUM CEFAZORIN, reference compound]					

SMILES	Number of Escherichia coli after the administration [1, 9]	Number of a sp. of Lactobacillus after the administration ([2]; mouse, in vivo, po)	Number of a sp. of Streptococcus after the administration ([3]; mouse, in vivo, po)	Number of Pseudomonas aeruginosa after the administration ([4]; mouse, in vivo, po)	Number of a sp. of Bacterioides after the administration ([5]; mouse, in vivo, po)	Number of Lactobacillus bifidus after the administration ([6]; mouse, in vivo, po)	MIC [7] [µg/mL]	MIC [8] [µg/mL]	Number of Escherichia coli after the administration ([1]; mouse, in vivo, po)	Number of a sp. of Lactobacillus after the administration [2, 10]	Number of a sp. of Streptococcus after the administration [3, 11]	Number of Pseudomonas aeruginosa after the administration [4, 12]	Number of a sp. of Bacterioides after the administration [5, 13]	Number of Lactobacillus bifidus after the administration [6, 14]
CC1=C(C(=O)O)N2C(=O)[C@@H](NC(=O)[C@H](N)c3ccccc3)[C@H]2SC1 [CEFALEXIN, 7(D-alpha-amino-alpha-phenylacetamido)-3-methyl-3-cephem-4-carboxylic aci, reference compound]	9.2 Log10 (number of bacteria/g feces)									4.0 Log10 (number of bacteria/g feces)	8.5 Log10 (number of bacteria/g feces)	< 3.0 Log10 (number of bacteria/g feces)	8.1 Log10 (number of bacteria/g feces)	8.0 Log10 (number of bacteria/g feces)
CC(=O)OCC1=C(C(=O)O)N2C(=O)[C@@H](NC(=O)CSc3ccncc3)[C@H]2SC1 [CEPHAPIRIN, 7(4-pyridylthioacetamido)cephalosporanic acid, reference compound]	9.0 Log10 (number of bacteria/g feces)									4.1 Log10 (number of bacteria/g feces)	9.1 Log10 (number of bacteria/g feces)	< 3.0 Log10 (number of bacteria/g feces)	8.5 Log10 (number of bacteria/g feces)	9.1 Log10 (number of bacteria/g feces)
COC(=O)Cc1ccc(NC(=O)C2=C(C)CSC3C(NC(=O)[C@H](N)c4ccccc4)C(=O)N23)cc1 (stereo partly drawn) [Example 4, N-(4-carbomethoxymethylphenyl)-[7-(D-alpha-aminophenylacetamido)desacetoxycephalosporanic]amide]	6.6 Log10 (number of bacteria/g feces)	8.9 Log10 (number of bacteria/g feces)	6.8 Log10 (number of bacteria/g feces)	< 3.0 Log10 (number of bacteria/g feces)	8.3 Log10 (number of bacteria/g feces)	8.3 Log10 (number of bacteria/g feces)	≥ 100	≥ 100						
